Experimental data published in article PMC11378297, “Discovery and Profiling of New Multimodal Phenylglycinamide Derivatives as Potent Antiseizure and Antinociceptive Drug Candidates” (ACS Chemical Neuroscience, 2024).
Like-named read-outs stand apart in the source and are kept apart here. Each block holds one compound with its values, some of them ahead of it.

What was measured:
TRPM8 (h) = target: T1, TRPM8 (h) (Homo sapiens, UniProt Q7Z2W7); test: TRPM8 (h) (antagonist effect); type: cell-based; conditions: HEK293, human recombinant HEK-293 cell, read-out: % inhibition of control agonist response
T1 construct: Eurofins
Description: (§1) Using previously described testing methodologies, binding/functional tests were conducted on a commercial basis at Eurofins Laboratories (Poitiers, France) and Eurofins Panlabs Discovery Services Taiwan, Ltd. (New Taipei City, Taiwan); see Table S9 for more information.
(§2) Table S9. Radioligand binding and functional assays. […]
TRPM8 (h) (antagonist effect) […]
(§3) Assays were performed commercially in Eurofins Laboratories (Poitiers, France) or Eurofins Panlabs Discovery Services
(§4) Taiwan, Ltd. (New Taipei City, Taiwan).

TRPA1 (h) = target: T2, TRPA1 (h) (Homo sapiens, UniProt O75762); test: TRPA1 (h) cell based antagonist calcium flux assay; conditions: HEK293, human recombinant HEK-293 cell, read-out: % inhibition of control agonist response
T2 construct: Eurofins
T2 sequence (O75762 whole entry): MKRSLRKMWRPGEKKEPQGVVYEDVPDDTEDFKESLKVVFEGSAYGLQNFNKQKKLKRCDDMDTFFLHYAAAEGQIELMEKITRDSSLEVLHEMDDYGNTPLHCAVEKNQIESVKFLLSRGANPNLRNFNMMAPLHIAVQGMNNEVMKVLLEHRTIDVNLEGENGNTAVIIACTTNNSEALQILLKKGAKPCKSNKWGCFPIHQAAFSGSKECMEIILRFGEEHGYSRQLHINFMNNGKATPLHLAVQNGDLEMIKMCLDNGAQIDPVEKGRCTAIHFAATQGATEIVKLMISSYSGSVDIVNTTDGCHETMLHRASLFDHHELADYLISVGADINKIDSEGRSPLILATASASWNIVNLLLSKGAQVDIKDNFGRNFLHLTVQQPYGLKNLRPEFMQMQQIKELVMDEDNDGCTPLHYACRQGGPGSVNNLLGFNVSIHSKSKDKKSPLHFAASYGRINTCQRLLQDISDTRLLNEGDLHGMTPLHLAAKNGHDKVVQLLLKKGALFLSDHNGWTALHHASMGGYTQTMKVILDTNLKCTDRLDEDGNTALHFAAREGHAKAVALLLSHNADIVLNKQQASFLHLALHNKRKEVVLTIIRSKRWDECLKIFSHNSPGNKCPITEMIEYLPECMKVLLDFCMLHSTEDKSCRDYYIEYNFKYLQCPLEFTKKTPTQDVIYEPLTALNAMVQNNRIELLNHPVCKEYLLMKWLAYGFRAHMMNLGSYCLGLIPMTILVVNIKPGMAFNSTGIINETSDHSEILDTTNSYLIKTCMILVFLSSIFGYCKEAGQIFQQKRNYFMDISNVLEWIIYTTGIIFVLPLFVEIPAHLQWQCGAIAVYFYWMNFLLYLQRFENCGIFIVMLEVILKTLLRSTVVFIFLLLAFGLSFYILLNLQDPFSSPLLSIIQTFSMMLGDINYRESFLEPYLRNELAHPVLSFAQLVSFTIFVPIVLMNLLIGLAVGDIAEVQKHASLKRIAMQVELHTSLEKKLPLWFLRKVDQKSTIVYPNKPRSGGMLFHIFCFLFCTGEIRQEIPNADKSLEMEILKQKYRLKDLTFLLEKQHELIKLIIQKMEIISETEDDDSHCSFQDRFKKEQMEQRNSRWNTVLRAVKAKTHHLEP
Description: as §1, §2
TRPA1 (h) transient potential ion channel cell based antagonist calcium flux assay […]
as §3, §4

[1] = target: T3, Cav1.2 (h) calcium ion channel (Homo sapiens, UniProt Q13936); test: Cav1.2 (h) calcium ion channel cell-based antagonist calcium flux assay; conditions: HEK293, human recombinant HEK-293 cell, read-out: % inhibition of control agonist response
T3 construct: Eurofins
Description: The current body of literature consistently reports that both sodium (Navx) and Cav1.2 calcium ion channels can be involved in the pathogenesis of epilepsy[67]−[69] and neuropathic pain.[70]−[73] […] Therefore, we performed binding and functional studies toward sodium (site 2) and calcium Cav1.2 channels at concentrations of 10 μM for (R)-31−(R)-33.
as §1
Table S9. Radioligand binding and functional assays.
Cav1.2 (L-type) (h) calcium ion channel cell-based antagonist calcium flux assay […]
as §3, §4

[2] = test system: fast voltage-gated sodium channels in rat prefrontal cortex pyramidal neurons; test: patch-clamp of fast voltage-gated sodium currents in prefrontal cortex pyramidal neurons; type: cell-based; conditions: 10 μM, control = 1.0, n = 5
From the text: Figure 9 Compounds (R)-31 and (R)-32 inhibit fast voltage-gated sodium currents in prefrontal cortex pyramidal neurons. (A) Example sodium current recordings in control (black trace), after application of (R)-31 (blue trace) and after wash-out (red trace). Current traces were evoked by a rectangular voltage-step. (B) Influence of (R)-31 on sodium current is shown on an example neuron. Current traces were evoked once every 10 s. […] (C) Averaged, normalized maximal sodium current amplitudes in control, in the presence of (R)-31 and after wash-out. […] (D) Example sodium current recordings in control (black trace), after application of (R)-32 (blue trace) and after wash-out (red trace). Current traces were evoked by a rectangular voltage-step. (E) Influence of (R)-32 on sodium current is shown on an example neuron. Current traces were evoked once every 10 s. […] (F) Averaged, normalized maximal sodium current amplitudes in control, in the presence of (R)-32 and after wash-out.
Patch-clamp studies were carried out in prefrontal cortex pyramidal neurons. The methodology of slice preparation, preparation of dispersed cortical neurons, and sodium currents recording technique were the same as in our previous study.[99]

[3] = test system: formalin-induced pain, mice; test: formalin test; type: in vivo, mouse; conditions: 100 mg/kg i.p.
[4] = target: T4, Voltage-Gated Sodium channel hNav1.6 (Homo sapiens, UniProt Q9UQD0); test: human sodium ion channel cell based automated patch clamp assay, hNav1.6
T4 construct: Eurofins Discovery (St. Charles, MO, USA)
T4 sequence (Q9UQD0 whole entry): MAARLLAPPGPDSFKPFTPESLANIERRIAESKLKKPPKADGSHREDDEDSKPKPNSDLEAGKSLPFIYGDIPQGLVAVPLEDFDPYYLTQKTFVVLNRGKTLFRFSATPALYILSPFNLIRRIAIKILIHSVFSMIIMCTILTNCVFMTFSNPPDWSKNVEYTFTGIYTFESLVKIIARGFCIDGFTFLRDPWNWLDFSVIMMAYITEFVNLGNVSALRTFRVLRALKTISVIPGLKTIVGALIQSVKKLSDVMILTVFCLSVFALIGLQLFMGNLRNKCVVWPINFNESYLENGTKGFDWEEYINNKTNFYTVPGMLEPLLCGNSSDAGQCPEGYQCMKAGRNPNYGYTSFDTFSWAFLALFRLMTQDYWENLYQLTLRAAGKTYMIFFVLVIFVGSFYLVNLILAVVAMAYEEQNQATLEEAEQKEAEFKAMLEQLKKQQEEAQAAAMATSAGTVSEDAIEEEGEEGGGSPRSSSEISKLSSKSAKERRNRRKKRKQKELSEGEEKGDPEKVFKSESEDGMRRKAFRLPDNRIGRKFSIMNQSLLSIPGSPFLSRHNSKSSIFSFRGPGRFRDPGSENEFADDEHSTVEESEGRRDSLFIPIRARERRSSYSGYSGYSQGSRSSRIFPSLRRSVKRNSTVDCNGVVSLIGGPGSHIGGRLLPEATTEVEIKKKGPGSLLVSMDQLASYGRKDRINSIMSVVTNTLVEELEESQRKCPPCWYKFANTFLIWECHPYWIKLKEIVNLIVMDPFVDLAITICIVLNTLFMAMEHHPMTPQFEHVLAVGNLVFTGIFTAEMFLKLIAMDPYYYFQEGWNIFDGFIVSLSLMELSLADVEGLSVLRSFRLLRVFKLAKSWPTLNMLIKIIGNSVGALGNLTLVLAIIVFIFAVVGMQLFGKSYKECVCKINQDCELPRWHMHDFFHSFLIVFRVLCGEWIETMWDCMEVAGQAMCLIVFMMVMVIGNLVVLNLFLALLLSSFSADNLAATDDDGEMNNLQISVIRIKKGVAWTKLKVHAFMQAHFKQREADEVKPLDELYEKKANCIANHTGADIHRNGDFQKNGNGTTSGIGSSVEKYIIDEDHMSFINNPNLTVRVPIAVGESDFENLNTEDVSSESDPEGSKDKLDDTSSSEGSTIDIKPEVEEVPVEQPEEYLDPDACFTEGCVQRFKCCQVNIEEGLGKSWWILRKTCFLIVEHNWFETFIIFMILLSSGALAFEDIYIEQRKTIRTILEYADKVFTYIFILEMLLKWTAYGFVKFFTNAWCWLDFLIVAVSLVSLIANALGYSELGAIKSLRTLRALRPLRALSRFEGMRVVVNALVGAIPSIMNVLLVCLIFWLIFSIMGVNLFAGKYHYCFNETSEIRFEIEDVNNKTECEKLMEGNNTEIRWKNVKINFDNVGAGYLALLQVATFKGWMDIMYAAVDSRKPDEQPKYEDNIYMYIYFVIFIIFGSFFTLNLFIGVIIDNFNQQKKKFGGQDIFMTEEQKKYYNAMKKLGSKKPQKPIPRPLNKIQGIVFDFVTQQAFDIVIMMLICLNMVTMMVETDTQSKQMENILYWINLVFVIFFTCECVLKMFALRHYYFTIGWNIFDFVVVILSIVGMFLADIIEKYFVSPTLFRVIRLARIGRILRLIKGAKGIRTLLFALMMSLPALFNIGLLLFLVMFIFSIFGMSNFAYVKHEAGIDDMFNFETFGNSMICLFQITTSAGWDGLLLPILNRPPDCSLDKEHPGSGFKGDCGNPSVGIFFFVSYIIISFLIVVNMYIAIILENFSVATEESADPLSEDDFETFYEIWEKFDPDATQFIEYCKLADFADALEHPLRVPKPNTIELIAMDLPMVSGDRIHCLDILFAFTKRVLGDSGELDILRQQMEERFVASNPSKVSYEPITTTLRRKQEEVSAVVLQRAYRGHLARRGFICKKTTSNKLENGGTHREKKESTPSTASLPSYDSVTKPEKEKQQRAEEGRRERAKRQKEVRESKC
Description: Therefore, as a part of the more detailed functional characterization using automated patch clamp method, we tested the influence of (R)-32 on sodium currents mediated by several Navx channels comprising 5 different human subunits, namely, Nav1.1, Nav1.2, Nav1.3, Nav1.6, and Nav1.7, which are involved in both seizure and/or pain modulation.[74],[80],[81] As summarized in Tables S4–S8, (R)-32 starting from 10 μM effectively and in concentration-dependent manner decreased sodium currents mediated by all aforementioned sodium channel subunits. Furthermore, (R)-32 appeared to bind exclusively to sodium channels that are in an inactivated state (see pulse 2 in Tables S4–S8), but not to the channels that are in an open state (pulse 1) (for additional details, see Supporting Information).
Human sodium ion channels cell based automated patch clamp assay
Human sodium ion channels cell based automated patch clamp assays: sodium channels exist in, a) a resting or closed state at -120 mV, b) a transient open state that inactivates to c) inactivated state at -10 mV. Sodium current inhibition within 1-2 ms of channel opening at 0 mV is open channel inhibition (pulse 1). In order to completely inactivate the sodium channels and facilitate inactivated state-dependent binding of the drug, the channels were kept at […] ( -10 mV) longer (pulsed for 500 ms) and then stepped back to -120 mV for 10 ms to recover from inactivation into resting or closed state (but the channels that had drug bound to them will not recover from inactivation and will not open) before stepping to -10 mV for 50 ms (pulse 2) to mea sure sodium channels that are available to open. The higher inhibition seen at pulse 2 is due to inactivated state -dependent inhibition. Pulse 1 and 2 are used to investigate drug binding to the open state and inactivated state of the Na channels, respectively. Each concentration of compound is applied for 5 minutes. The results obtained for (R)-32 are summerized in Tables S4–S8. […]
Compound Concentration Measurement % Inhibition
Data interpretation: Results showing inhibition greater than 50% are considered to represent significant effects of test compound and have been bolded for (R)-32 for better visualization. The studies were carried out in Eurofins Discovery (St. Charles, MO, USA).

[5] = target: T5, Voltage-Gated Sodium channel hNav1.7 (Homo sapiens, UniProt Q15858); test: human sodium ion channel cell based automated patch clamp assay, hNav1.7
T5 construct: Eurofins Discovery (St. Charles, MO, USA)
T5 sequence (Q15858 whole entry): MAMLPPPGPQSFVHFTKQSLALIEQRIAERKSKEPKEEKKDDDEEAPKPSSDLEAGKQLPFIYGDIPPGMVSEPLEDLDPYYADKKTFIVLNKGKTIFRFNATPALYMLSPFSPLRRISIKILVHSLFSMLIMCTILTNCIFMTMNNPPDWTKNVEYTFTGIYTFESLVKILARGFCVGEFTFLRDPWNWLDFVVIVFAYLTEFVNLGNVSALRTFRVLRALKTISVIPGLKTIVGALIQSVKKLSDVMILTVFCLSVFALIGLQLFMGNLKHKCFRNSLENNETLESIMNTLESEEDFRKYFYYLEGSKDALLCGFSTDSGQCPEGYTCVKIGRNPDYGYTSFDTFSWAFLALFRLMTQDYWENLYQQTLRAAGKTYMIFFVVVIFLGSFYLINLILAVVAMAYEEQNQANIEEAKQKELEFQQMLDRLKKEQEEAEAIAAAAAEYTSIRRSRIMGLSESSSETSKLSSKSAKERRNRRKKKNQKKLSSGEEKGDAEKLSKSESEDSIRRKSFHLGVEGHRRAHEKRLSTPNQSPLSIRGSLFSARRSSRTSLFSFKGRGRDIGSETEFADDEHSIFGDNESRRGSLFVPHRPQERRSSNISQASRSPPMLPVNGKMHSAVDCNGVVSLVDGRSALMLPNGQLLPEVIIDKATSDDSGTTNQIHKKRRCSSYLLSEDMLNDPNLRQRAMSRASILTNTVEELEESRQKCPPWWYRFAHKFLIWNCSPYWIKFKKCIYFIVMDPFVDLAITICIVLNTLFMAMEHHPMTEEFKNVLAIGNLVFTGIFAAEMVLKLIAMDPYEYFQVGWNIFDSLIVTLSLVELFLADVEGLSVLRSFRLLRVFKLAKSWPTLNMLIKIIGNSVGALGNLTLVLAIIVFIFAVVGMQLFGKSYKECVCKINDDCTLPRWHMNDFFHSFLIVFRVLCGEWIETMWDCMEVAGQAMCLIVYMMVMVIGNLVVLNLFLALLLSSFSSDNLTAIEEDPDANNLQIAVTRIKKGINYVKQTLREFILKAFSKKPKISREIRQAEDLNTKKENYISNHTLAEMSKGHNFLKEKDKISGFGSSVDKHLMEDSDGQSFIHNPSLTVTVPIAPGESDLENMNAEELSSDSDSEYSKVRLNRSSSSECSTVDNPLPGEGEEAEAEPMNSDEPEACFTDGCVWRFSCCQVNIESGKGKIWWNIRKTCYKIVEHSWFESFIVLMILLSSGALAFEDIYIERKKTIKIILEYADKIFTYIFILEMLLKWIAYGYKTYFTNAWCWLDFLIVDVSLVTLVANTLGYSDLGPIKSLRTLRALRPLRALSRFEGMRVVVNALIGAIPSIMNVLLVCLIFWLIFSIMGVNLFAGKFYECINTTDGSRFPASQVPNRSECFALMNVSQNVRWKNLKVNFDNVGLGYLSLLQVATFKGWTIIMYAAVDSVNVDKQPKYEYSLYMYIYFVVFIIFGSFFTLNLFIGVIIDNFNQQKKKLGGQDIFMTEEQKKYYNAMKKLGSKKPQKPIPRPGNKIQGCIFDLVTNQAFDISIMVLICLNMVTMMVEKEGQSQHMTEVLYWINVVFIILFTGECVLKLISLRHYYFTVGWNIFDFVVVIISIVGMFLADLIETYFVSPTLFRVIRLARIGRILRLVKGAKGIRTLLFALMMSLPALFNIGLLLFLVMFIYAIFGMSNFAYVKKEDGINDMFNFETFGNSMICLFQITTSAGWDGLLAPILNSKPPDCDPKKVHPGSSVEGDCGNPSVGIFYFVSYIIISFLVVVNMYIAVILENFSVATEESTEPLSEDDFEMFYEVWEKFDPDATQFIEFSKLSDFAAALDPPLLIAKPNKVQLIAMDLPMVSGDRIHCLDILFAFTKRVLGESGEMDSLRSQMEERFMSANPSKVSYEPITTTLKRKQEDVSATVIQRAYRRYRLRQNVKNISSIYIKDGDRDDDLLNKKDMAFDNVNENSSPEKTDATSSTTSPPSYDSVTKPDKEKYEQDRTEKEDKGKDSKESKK

[6] = hNav1.6, Pulse 1 (open state), read-out: % Inhibition Mean
[7] = hNav1.6, Pulse 1 (open state), read-out: % Inhibition n1
[8] = hNav1.6, Pulse 1 (open state), read-out: % Inhibition n2
[9] = hNav1.6, Pulse 2 (inactivated state), read-out: % Inhibition Mean
[10] = hNav1.6, Pulse 2 (inactivated state), read-out: % Inhibition n1
[11] = hNav1.6, Pulse 2 (inactivated state), read-out: % Inhibition n2
[12] = hNav1.7, Pulse 1 (open state), read-out: % Inhibition Mean
[13] = hNav1.7, Pulse 1 (open state), read-out: % Inhibition n1
[14] = hNav1.7, Pulse 1 (open state), read-out: % Inhibition n2
[15] = hNav1.7, Pulse 2 (inactivated state), read-out: % Inhibition Mean
[16] = hNav1.7, Pulse 2 (inactivated state), read-out: % Inhibition n1
[17] = hNav1.7, Pulse 2 (inactivated state), read-out: % Inhibition n2

SMILES: CC(=O)N[C@@H](C(=O)N1CCN(c2cccc(C(F)(F)F)c2)CC1)c1ccccc1 [(R)-31, (R)-N-(2-Oxo-1-phenyl-2-(4-(3-(trifluoromethyl)phenyl)piperazin-1-yl)ethyl)acetamide]
- inhibition at 10 µM (TRPM8 (h)): 4.6%
- inhibition at 10 µM (TRPA1 (h)): 13.3%
- inhibition at 10 µM [1]: 75%
- averaged, maximal-normalized amplitude of voltage-gated sodium currents after application [2]: 0.66 ± 0.04
- averaged, maximal-normalized amplitude of voltage-gated sodium currents after wash-out [2]: 0.76 ± 0.05
- nociceptive response, acute phase of the formalin test ([3]; 0–5 min after formalin): significantly attenuated the nociceptive response
- nociceptive response, late phase of the formalin test ([3]; 15–30 min after formalin): significantly attenuated the nociceptive response

- inhibition at 3 µM [4, 6]: 4.79%
- inhibition at 3 µM [4, 7]: 7.73%
- inhibition at 3 µM [4, 8]: 1.85%
- inhibition at 30 µM [4, 6]: 34.7%
- inhibition at 30 µM [4, 7]: 34.7%
- inhibition at 30 µM [4, 8]: 34.7%
- inhibition at 300 µM [4, 6]: 75%
- inhibition at 300 µM [4, 7]: 68.2%
- inhibition at 300 µM [4, 8]: 81.8%
- inhibition at 3 µM [4, 9]: 86.4%
- inhibition at 3 µM [4, 10]: 80.8%
- inhibition at 3 µM [4, 11]: 91.9%
- inhibition at 30 µM [4, 9]: 99.2%
- inhibition at 30 µM [4, 10]: 95.7%
- inhibition at 30 µM [4, 11]: 103%
- inhibition at 300 µM [4, 9]: 97.9%
- inhibition at 300 µM [4, 10]: 91.3%
- inhibition at 300 µM [4, 11]: 104%
- inhibition at 3 µM [5, 12]: 8.82%
- inhibition at 3 µM [5, 13]: 11.3%
- inhibition at 3 µM [5, 14]: 6.36%
- inhibition at 30 µM [5, 12]: 27.6%
- inhibition at 30 µM [5, 13]: 27.5%
- inhibition at 30 µM [5, 14]: 27.8%
- inhibition at 300 µM [5, 12]: 95.1%
- inhibition at 300 µM [5, 13]: 94.6%
- inhibition at 300 µM [5, 14]: 95.6%
- inhibition at 3 µM [5, 15]: 47.5%
- inhibition at 3 µM [5, 16]: 45.9%
- inhibition at 3 µM [5, 17]: 49.1%
- inhibition at 30 µM [5, 15]: 98.6%
- inhibition at 30 µM [5, 16]: 98%
- inhibition at 30 µM [5, 17]: 99.2%
- inhibition at 300 µM [5, 15]: 101%
- inhibition at 300 µM [5, 16]: 101%
- inhibition at 300 µM [5, 17]: 102%
SMILES: CCCCNc1ccc(C(=O)OCCN(C)C)cc1 [Tetracaine, reference compound]

SMILES: CC(=O)N[C@@H](C(=O)N1CCN(c2cccc(SC(F)(F)F)c2)CC1)c1ccccc1 [(R)-33, (R)-N-(2-Oxo-1-phenyl-2-(4-(3-((trifluoromethyl)thio)phenyl)piperazin-1-yl)ethyl)acetamide]
- inhibition at 10 µM [1]: 49%
